According to patent publication US10239889B1, “Pentacyclic compound” (Eisai R&D Management Co., Ltd., priority 2017, dated 2019):

Assays:
[1] = tested on: Choline Acetyltransferase (ChAT) mRNA; assay: Measurement of choline acetyltransferase (ChAT) mRNA expression levels in the rat septal area; assay type: in vivo; conditions: SD rat medial septum, oral 10 mg/kg, 24 hours after administration, qPCR
Description: Measurement of Choline Acetyltransferase (ChAT) mRNA Expression Levels in the Rat Septal Area
(1) Compound Administration
In this study, SD male rats (Charles River Laboratories Japan, Inc.) with a body weight of about 250 to 350 g were used. The compound was dissolved in 0.01 mol/L hydrochloric acid, and orally administered.
At 24 hours after the administration of the compound, the whole brain tissue was collected under pentobarbital anesthesia. The medial septum was isolated from whole brain on ice and frozen with liquid nitrogen, and then stored at −80° C.
(3) Measurement of ChAT mRNA Expression Levels
For RNA purification, RNeasy Plus Mini Kit (#74136: QIAGEN) was used in this study. RNA purification was performed by the method described in the kit. After RNA purification, the total RNA concentration was measured by using QIAxpert Instrument (QIAGEN). cDNA was synthesized using SuperScript® VILO™ cDNA Synthesis Kit (#11754: Thermo Fisher Scientific). The synthesis of cDNA was performed by the method described in the kit. The synthesized cDNA was diluted 4 times with RNase free water, and the diluted cDNA solution was used as a sample. Taqman Universal PCR Master Mix (#4304437: Thermo Fisher Scientific), Taqman® Gene Expression Assays, INVENTORIED (#4331182: Thermo Fisher Scientific), RNase free water, and the cDNA solution were mixed in amounts of 10 μl, 1 μl, 4 μl, and 5 μl, respectively, and the resulting mixture was used as a measurement sample solution. Quantitative polymerase chain reaction (qPCR) was conducted using ABI PRISM® 7900HT (Thermo Fisher Scientific) by a fluorescence probe method. Analysis was performed by SDS 2.4 (Thermo Fisher Scientific). The results were calculated by the percentage of the amount of ChAT mRNA expression levels in the compound administration group increased from the amount of ChAT mRNA expression levels in the vehicle administration group.

[2] = tested on: cholinergic neurons, fimbria-fornix lesioned rat model; assay: Neuroprotective and restorative effect on cholinergic neurons using fimbria-fornix lesioned rat model (ChAT positive cells, hippocampal VAChT); assay type: in vivo; conditions: % of sham-operated group, mean±SEM; for OD in hippocampal VAChT (%) in test compound administration group: hippocampus; for Number of ChAT positive cells (%) in test compound administration group: medial septal area
Description: Neuroprotective and Restorative Effect on Cholinergic Neurons Usi Ng Fimbria-Fomix Lesioned Rat Model
(1) Preparation of Fimbria-Fomix Lesioned Rat Model
In this study, Sprague-Dawley male rats (Charles River Laboratories Japan, Inc.) with a body weight of about 250 to 350 g were used. The rat was anesthetized under the combination of three drugs: midazolam (2 mg/kg s.c.), medetomidine hydrochloride (0.15 mg/kg s.c.) and butorphanol tartrate (2.5 mg/kg s.c.) and fixed with a brain stereotaxis apparatus (Narishige Co., Ltd.). The cranial was exposed and a hole with 5 mm width was drilled in the skull from the median line 2 mm posterior to Bregma. A razor with 4 mm width was pierced into the Bregma in 5.5 mm depth to cut fimbria-fornmix. After hemostasis, the scalp was sutured. After the operation, the rat was brought back to the cage and recovered from the anesthesia. In the sham-operated group, a hole with 5 mm width was drilled in the skull from the median line 2 mm posterior to Bregma, but no razor was pierced.
(2) Compound Administration
The test compounds were orally administered to the rats once a day from five days to nine days after the operation (Example 1: 10 mg/kg) or from seven days to fourteen days after the operation (Example 3: 3 mg/kg). The vehicle used was 0.01 mol/L hydrochloric acid. In the sham-operated group, the vehicle was orally administered once a day similarly to the test compound administration group.
The rats were anesthetized under pentobarbital and transcardially perfused with ice-cold PBS. After the perfusion, the forebrain including the medial septal area was collected and immersed and shaken overnight with 4% paraformaldehyde. The immersion solution was replaced with 7.5% sucrose solution. It was immersed and shaken overnight in 7.5% sucrose solution, and the immersion solution was replaced with 15% sucrose solution and it was immersed and shaken overnight. The immersion solution was replaced with 30% sucrose solution and it was immersed and shaken overnight. […]
The prepared brain coronal frozen sections were stained with DAB (DAB PEROXIDASE SUBSTRATE KIT (Vector, SK-4100)) using a ChAT antibody (Santa Cruz, S.C.-20672) or a VAChT antibody (Merck Millipore, ABN100) as a primary antibody. The section image including the medial septal area or hippocampus as shown in “The mouse Brain in stereotaxic coordinates” (COMPACT THIRD EDITION, Keith B.J. Franklin & George Paxinos) was taken by an all-in-one fluorescence microscope (KEYENCE, BZ-X710) and ChAT positive cells of the medial septal area or optical density (OD) in hippocampal VAChT were measured by BZ analysis software (KEYENCE). […] Data are expressed as the mean±SEM. The differences between the vehicle-treated group and compound-treated (significant: #) was analyzed by unpaired t-test. […]

[3] = oral 10 mg/kg once a day from five to nine days after operation
[4] = oral 3 mg/kg once a day from seven to fourteen days after operation

Compound	Amount (%) increased from the amount of ChAT mRNA expression levels in the vehicle administration group [1] [%]	OD in hippocampal VAChT (%) in test compound administration group [2, 3]	Number of ChAT positive cells (%) in test compound administration group [2, 3] [%]	OD in hippocampal VAChT (%) in test compound administration group [2, 4]	Number of ChAT positive cells (%) in test compound administration group [2, 4]
CN1CCc2c(sc3nc4n(c(=O)c23)-c2ccc(F)cc2C(=O)N(C)C4)C1 [Example 1]	73.3	77.1 ± 14.6^# %	79.1 ± 15.7		
CN1CCc2c(sc3nc4n(c(=O)c23)-c2sccc2C(=O)N(C)C4)C1 [Example 3, 5,10-dimethyl-5,6,9,10,11,12-hexahydropyrido[4″,3″:4′,5′]thieno[2′,3′:4,5]pyrimido[1,2-a]thieno[3,2-f][1,4]diazepine-4,13-dione]	56.4			66.1 ± 14.2^# %	74.1 ± 9.3^# %
